Results on one compound are retold here after BindingDB's records for PubMed 18089823 (Harvard Medical School).

SMILES strings stand for the structures. pIC50: −log10 of the molar value.

The test deals with 3-phosphoinositide-dependent protein kinase 1 (Homo sapiens) (UniProt O15530). The test can be described thus: Inhibition of recombinant PDK1 (unknown origin).

`COc1cc2ncnc(Nc3ccc(F)c(Cl)c3)c2cc1NC(=O)/C=C/CN1CCCCC1` [DACOMITINIB]: the pIC50 is below 5.00.
